Measurements taken from patent US20210330611A1, “THERAPY FOR NEUROLOGICAL DISEASES/DISORDERS” (priority 2020, published 2021).
Structures can show the parent of a compound that is named as a salt. Where two headings read alike, the source gives them in different places.

Columns and labels:
[1] = system: fibrin-induced microglia activation; assay: Image-based assay of fibrin-induced microglia activation (HTS and dose response); format: cell-based, rat; details: for inhibition at 10 µM: Rattus norvegicus, Microglia, read-out: Fibrin % inhibition
primary rat microglia [2] = assay: Cell toxicity (dead cells, size <150 μm2) in LPS assay
primary rat microglia [3] = assay: Cell toxicity (dead cells, size <150 μm2) in coated fibrin (cFib) assay;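 note: share of dead cells sized under 150 µm2 at 10 µM in fibrin-stimulated microglia HTS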
[4] = system: fibrin- and LPS-induced microglia activation; assay: cells; format: cell-based, rat
[5] = system: LPS-induced microglia activation; assay: Image-based assay of LPS-induced microglia activation (HTS and dose response); format: cell-based, rat; details: for inhibition at 10 µM: Rattus norvegicus, Microglia, read-out: LPS % inhibition
[6] = primary microglia HTS, fibrin stimulation, increased cell size (>800 μm^2) as marker of activation
[7] = primary microglia HTS, LPS stimulation, decreased size (<150 μm^2) as marker of toxicity
[8] = primary microglia HTS, fibrin stimulation, decreased size (<150 μm^2) as marker of toxicity
[9] = quadrant by fibrin and LPS inhibition in HTS of 1907 compounds
[10] = 48 h, primary microglia HTS, LPS stimulation, increased cell size (>800 μm^2) as marker of activation
[11] = primary HTS, 10 μM, fibrin-stimulated primary microglia
[12] = primary HTS, 10 μM, LPS assay, dead cells size <150 μm2
[13] = primary HTS, 10 μM, fibrin assay, dead cells size <150 μm2
[14] = primary HTS, 10 μM, LPS-stimulated primary microglia
[15] = primary microglia HTS, 10 μM, fibrin-stimulated, cell size >800 μm^2 as marker of activation
[16] = primary microglia HTS, 10 μM, LPS assay, cell size <150 μm^2 as marker of toxicity
[17] = primary microglia HTS, 10 μM, fibrin assay, cell size <150 μm^2 as marker of toxicity
[18] = HTS of 1907 compounds, quadrant by fibrin and LPS inhibition
[19] = primary microglia HTS, 10 μM, LPS-stimulated, cell size >800 μm^2 as marker of activation
[20] = primary microglia HTS, fibrin stimulation, activation = cell size >800 μm2
[21] = primary microglia HTS, LPS stimulation, toxicity = cell size <150 μm2
[22] = primary microglia HTS, fibrin stimulation, toxicity = cell size <150 μm2
[23] = 48 h, primary microglia HTS, LPS stimulation, activation = cell size >800 μm2

## CN(C)CCOC(=O)COc1ccc(Cl)cc1 [Meclofenoxate]
[1]; [6]
  inhibition at 10 µM: -23%
Primary rat microglia [2]; [7]
  LPS % cell toxicity: 0%
Primary rat microglia [3]; [8]
  Fibrin % cell toxicity: 1%
[4]; [9]
  Quadrant (FIG. 5b): Q4
[5]; [10]
  inhibition at 10 µM: 24%

## Capreomycin Sulfate
[1]; [11]
  Fibrin % inhibition: −32%
Primary rat microglia [2]; [12]
  LPS % cell toxicity: 0%
Primary rat microglia [3]; [13]
  Fibrin % cell toxicity: 1%
[4]; primary HTS, 10 μM
  Quadrant (FIG. 5b): Q4
[5]; [14]
  LPS % inhibition: 3%

## CC(=O)NS(=O)(=O)c1ccc(N)cc1 [Sulfacetamide]
[1]; [15]
  inhibition at 10 µM: -2%
Primary rat microglia [2]; [16]
  LPS % cell toxicity: 0%
Primary rat microglia [3]; [17]
  Fibrin % cell toxicity: 1%
[4]; [18]
  Quadrant (FIG. 5b): Q4
[5]; [19]
  inhibition at 10 µM: 10%

## CC(C)C[C@H]1C(=O)N2CCC[C@H]2[C@]2(O)O[C@](NC(=O)[C@@H]3C=C4c5cccc6[nH]c(Br)c(c56)C[C@H]4N(C)C3)(C(C)C)C(=O)N12 [Bromocriptine Mesylate]
[1]; [11]
  inhibition at 10 µM: 26%
Primary rat microglia [2]; [12]
  LPS % cell toxicity: 0%
Primary rat microglia [3]; [13]
  Fibrin % cell toxicity: 1%
[4]; primary HTS, 10 μM
  Quadrant (FIG. 5b): Q4
[5]; [14]
  inhibition at 10 µM: 24%

## COc1cc(NS(=O)(=O)c2ccc(N)cc2)ncn1 [Sulfamonomethoxine]
[1]; [15]
  inhibition at 10 µM: 38%
Primary rat microglia [2]; [16]
  LPS % cell toxicity: 1%
Primary rat microglia [3]; [17]
  Fibrin % cell toxicity: 1%
[4]; [18]
  Quadrant (FIG. 5b): Q4
[5]; [19]
  inhibition at 10 µM: 19%

## COc1cc(C(=O)NCc2ccc(OCCN(C)C)cc2)cc(OC)c1OC [Trimethobenzamide]
[1]; [15]
  inhibition at 10 µM: 16%
Primary rat microglia [2]; [16]
  LPS % cell toxicity: 0%
Primary rat microglia [3]; [17]
  Fibrin % cell toxicity: 1%
[4]; [18]
  Quadrant (FIG. 5b): Q4
[5]; [19]
  inhibition at 10 µM: 17%

## CCN(CC)CCNC(=O)c1cc(S(C)(=O)=O)ccc1OC [Tiapride]
[1]; [15]
  inhibition at 10 µM: -18%
Primary rat microglia [2]; [16]
  LPS % cell toxicity: 0%
Primary rat microglia [3]; [17]
  Fibrin % cell toxicity: 0%
[4]; [18]
  Quadrant (FIG. 5b): Q4
[5]; [19]
  inhibition at 10 µM: 6%

## CCOC(=O)Nc1nc2ccccc2[nH]1 [Lobendazole]
[1]; [20]
  inhibition at 10 µM: -4%
Primary rat microglia [2]; [21]
  LPS % cell toxicity: 0%
Primary rat microglia [3]; [22]
  Fibrin % cell toxicity: 0%
[4]; [9]
  Quadrant (FIG. 5b): Q4
[5]; [23]
  inhibition at 10 µM: 20%

## C[C@@H]1C/C=C/C=C/C=C/C=C/[C@H](O[C@@H]2O[C@H](C)[C@@H](O)[C@H](N)[C@@H]2O)C[C@@H]2O[C@](O)(C[C@@H](O)C[C@H]3O[C@@H]3/C=C/C(=O)O1)C[C@H](O)[C@H]2C(=O)O [Natamycin]
[1]; [6]
  inhibition at 10 µM: -7%
Primary rat microglia [2]; [7]
  LPS % cell toxicity: 0%
Primary rat microglia [3]; [8]
  Fibrin % cell toxicity: 1%
[4]; [9]
  Quadrant (FIG. 5b): Q4
[5]; [10]
  inhibition at 10 µM: 35%

## CC1COc2c(N3CCN(C)CC3)c(F)cc3c(=O)c(C(=O)O)cn1c23 (centres unmarked) [Ofloxacin]
[1]; [6]
  inhibition at 10 µM: -13%
Primary rat microglia [2]; [7]
  LPS % cell toxicity: 0%
Primary rat microglia [3]; [8]
  Fibrin % cell toxicity: 1%
[4]; [9]
  Quadrant (FIG. 5b): Q4
[5]; [10]
  inhibition at 10 µM: 16%

## CC1=C(C(=O)O)N2C(=O)[C@@H](NC(=O)[C@H](N)C3=CCC=CC3)[C@H]2SC1 [Cephradine]
[1]; [11]
  inhibition at 10 µM: -26%
Primary rat microglia [2]; [12]
  LPS % cell toxicity: 0%
Primary rat microglia [3]; [13]
  Fibrin % cell toxicity: 0%
[4]; primary HTS, 10 μM
  Quadrant (FIG. 5b): Q4
[5]; [14]
  inhibition at 10 µM: -1%

## COc1ccc(CCN2CCC(Nc3nc4ccccc4n3Cc3ccc(F)cc3)CC2)cc1 [Astermizole]
[1]; [6]
  Fibrin % inhibition: 10%
Primary rat microglia [2]; [7]
  LPS % cell toxicity: 2%
Primary rat microglia [3]; [8]
  Fibrin % cell toxicity: 1%
[4]; [9]
  Quadrant (FIG. 5b): Q1
[5]; primary microglia HTS, LPS stimulation, increased cell size (>800 μm^2) as marker of activation
  LPS % inhibition: 69%

## CC[C@H]1CN2CC[C@H]1C[C@@H]2[C@@H](O)c1ccnc2ccc(OC)cc12 [Hydroquinidine]
[1]; [20]
  inhibition at 10 µM: -8%
Primary rat microglia [2]; [21]
  LPS % cell toxicity: 0%
Primary rat microglia [3]; [22]
  Fibrin % cell toxicity: 1%
[4]; [9]
  Quadrant (FIG. 5b): Q4
[5]; [23]
  inhibition at 10 µM: 18%

## C[C@]12CCC(=O)C(O)=C1CC[C@@H]1[C@@H]2CC[C@]2(C)C(=O)CC[C@@H]12 [Formestane]
[1]; [20]
  inhibition at 10 µM: -6%
Primary rat microglia [2]; [21]
  LPS % cell toxicity: 0%
Primary rat microglia [3]; [22]
  Fibrin % cell toxicity: 1%
[4]; [9]
  Quadrant (FIG. 5b): Q4
[5]; [23]
  inhibition at 10 µM: 10%

## C=C[C@H]1C[N@@]2CC[C@H]1C[C@@H]2[C@@H](O)c1ccnc2ccccc12 [Cinchonine]
[1]; [11]
  inhibition at 10 µM: -6%
Primary rat microglia [2]; [12]
  LPS % cell toxicity: 0%
Primary rat microglia [3]; [13]
  Fibrin % cell toxicity: 1%
[4]; primary HTS, 10 μM
  Quadrant (FIG. 5b): Q4
[5]; [14]
  inhibition at 10 µM: 28%

## CC(C)Nc1ncccn1 [Isaxonine]
[1]; [20]
  inhibition at 10 µM: -46%
Primary rat microglia [2]; [21]
  LPS % cell toxicity: 0%
Primary rat microglia [3]; [22]
  Fibrin % cell toxicity: 0%
[4]; [9]
  Quadrant (FIG. 5b): Q4
[5]; [23]
  inhibition at 10 µM: -1%

## CN1CCOC(c2ccccc2)c2ccccc2C1 (centres unmarked) [Nefopam]
[1]; [6]
  inhibition at 10 µM: -15%
Primary rat microglia [2]; [7]
  LPS % cell toxicity: 0%
Primary rat microglia [3]; [8]
  Fibrin % cell toxicity: 0%
[4]; [9]
  Quadrant (FIG. 5b): Q4
[5]; [10]
  inhibition at 10 µM: 3%

## CC(=O)OCC(=O)[C@@]1(O)CC[C@H]2[C@@H]3CCC4=CC(=O)CC[C@]4(C)[C@H]3C(=O)C[C@@]21C [Cortisone Acetate]
[1]; [11]
  inhibition at 10 µM: 0%
Primary rat microglia [2]; [12]
  LPS % cell toxicity: 0%
Primary rat microglia [3]; [13]
  Fibrin % cell toxicity: 1%
[4]; primary HTS, 10 μM
  Quadrant (FIG. 5b): Q4
[5]; [14]
  inhibition at 10 µM: 7%

## CO/N=C(\C(=O)N[C@@H]1C(=O)N2C(C(=O)[O-])=C(C[N+]3(C)CCCC3)CS[C@H]12)c1csc(N)n1 [Cefepime]
[1]; [11]
  inhibition at 10 µM: -26%
Primary rat microglia [2]; [12]
  LPS % cell toxicity: 0%
Primary rat microglia [3]; [13]
  Fibrin % cell toxicity: 1%
[4]; primary HTS, 10 μM
  Quadrant (FIG. 5b): Q4
[5]; [14]
  inhibition at 10 µM: 4%

## COC(=O)C1=C(C)NC(C)=C(C(=O)OC(C)C)C1c1cccc2nonc12 (centres unmarked) [Isradipine]
[1]; [20]
  inhibition at 10 µM: 9%
Primary rat microglia [2]; [21]
  LPS % cell toxicity: 0%
Primary rat microglia [3]; [22]
  Fibrin % cell toxicity: 1%
[4]; [9]
  Quadrant (FIG. 5b): Q4
[5]; [23]
  inhibition at 10 µM: 2%

## CCCCN1C[C@H](O)[C@@H](O)[C@H](O)[C@H]1CO [Miglustat]
[1]; [6]
  inhibition at 10 µM: -6%
Primary rat microglia [2]; [7]
  LPS % cell toxicity: 0%
Primary rat microglia [3]; [8]
  Fibrin % cell toxicity: 1%
[4]; [9]
  Quadrant (FIG. 5b): Q4
[5]; [10]
  inhibition at 10 µM: 0%

## Cn1nnnc1SCC1=C(C(=O)O)N2C(=O)[C@@H](NC(=O)[C@H](O)c3ccccc3)[C@H]2SC1 [Cefamandole Sodium]
[1]; [11]
  inhibition at 10 µM: -12%
Primary rat microglia [2]; [12]
  LPS % cell toxicity: 0%
Primary rat microglia [3]; [13]
  Fibrin % cell toxicity: 1%
[4]; primary HTS, 10 μM
  Quadrant (FIG. 5b): Q4
[5]; [14]
  inhibition at 10 µM: 16%

## COc1cc2c3cc1Oc1cc(ccc1O)C[C@@H]1c4c(cc(OC)c(O)c4Oc4ccc(cc4)C[C@@H]3N(C)CC2)CC[N+]1(C)C [Tubocurarine]
[1]; [15]
  inhibition at 10 µM: -1%
Primary rat microglia [2]; [16]
  LPS % cell toxicity: 0%
Primary rat microglia [3]; [17]
  Fibrin % cell toxicity: 0%
[4]; [18]
  Quadrant (FIG. 5b): Q4
[5]; [19]
  inhibition at 10 µM: 19%

## Candicidin
[1]; [11]
  Fibrin % inhibition: −41%
Primary rat microglia [2]; [12]
  LPS % cell toxicity: 0%
Primary rat microglia [3]; [13]
  Fibrin % cell toxicity: 1%
[4]; primary HTS, 10 μM
  Quadrant (FIG. 5b): Q4
[5]; [14]
  LPS % inhibition: 31%

## C[N+]1(C)[C@@H]2C[C@@H](OC(=O)C(O)(c3cccs3)c3cccs3)C[C@H]1[C@@H]1O[C@@H]12 [Tiotropium]
[1]; [15]
  inhibition at 10 µM: -32%
Primary rat microglia [2]; [16]
  LPS % cell toxicity: 0%
Primary rat microglia [3]; [17]
  Fibrin % cell toxicity: 0%
[4]; [18]
  Quadrant (FIG. 5b): Q4
[5]; [19]
  inhibition at 10 µM: -1%
